Data from US20230271953A1, “Novel compounds for treatment of diseases related to DUX4 expression” (Facio Intellectual Property B.V., priority 2019, published 2023).

Test system: DUX4
Assay: DUX4 repression assay in primary FSHD cells (protocol of Example 2 of WO2019/115711)
Type: cell-based, human
Details: incubated 72 hours, Table 2.3 (additional results), binned
Method: The DUX4 repression of compounds of general formula (I) was assayed following a known protocol (the protocol of Example 2 of WO2019/115711). Several compounds were incubated with primary FSHD cells for 72 hours. Results are shown in Table 2.2, showing DUX4 Count % inhibition.

Structure (SMILES) | DUX4 Count % inhibition
OC1CN(c2ccc3nc(-c4ccc(F)cc4)n(-c4ccncc4)c3n2)C1 [Compound 98, 1-[2-(4-fluorophenyl)-3-(pyridin-4-yl)-3H-imidazo[4,5-b]pyridin-5-yl]azetidin-3-ol] | fall outside of the bins
Fc1ccc(-c2nc3ccc(N4CC(N5CCCC5)C4)nc3n2-c2ccncc2)cc1 [Compound 106, 4-[2-(4-fluorophenyl)-5-[3-(pyrrolidin-1-yl)azetidin-1-yl]-3H-imidazo[4,5-b]pyridin-3-yl]pyridine] | fall outside of the bins
C[C@@H]1CNCCN1c1ccc2nc(-c3cccc(C#N)c3)n(-c3ccncc3)c2n1 [Compound 188-R, 3-{5-[(2R)-2-methylpiperazin-1-yl]-3-(pyridin-4-yl)-3H-imidazo[4,5-b]pyridin-2-yl}benzonitrile] | fall outside of the bins
